In PubChem BioAssay (NCI):
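All cell lines were grown in 96-well plates and treated with compound for 48 hours. GI50 is the concentration that inhibits growth by half. TGI: total growth inhibition.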

What was measured:
Assay in all cases: NCI tumour cell line growth inhibition, 48 h
HCT-116 colon = test system: HCT-116 colon
HL-60(TB) leukemia = test system: HL-60(TB) leukemia
IGROV1 ovarian = test system: IGROV1 ovarian
NCI-H226 lung = test system: NCI-H226 lung
NCI-H522 lung = test system: NCI-H522 lung
SK-MEL-5 melanoma = test system: SK-MEL-5 melanoma
SK-OV-3 ovarian = test system: SK-OV-3 ovarian
SW-620 colon = test system: SW-620 colon
MDA-MB-435 = test system: MDA-MB-435
T-47D breast = test system: T-47D breast

| SMILES | TGI (HCT-116 colon) | TGI (HL-60(TB) leukemia) | TGI (IGROV1 ovarian) | TGI (NCI-H226 lung) | TGI (NCI-H522 lung) | TGI (SK-MEL-5 melanoma) | TGI (SK-OV-3 ovarian) | TGI (SW-620 colon) | GI50 (NCI-H226 lung) | TGI (MDA-MB-435) | TGI (T-47D breast) |
| --- | --- | --- | --- | --- | --- | --- | --- | --- | --- | --- | --- |
| COc1ccc(-c2cc(=O)c3cc(OC)ccc3[nH]2)cc1 | > 100 µM | > 100 µM | > 100 µM | > 100 µM | > 100 µM | > 100 µM | > 100 µM | > 100 µM |  |  |  |
| Cc1cc(/C=C/c2cc[n+](C)c3ccccc23)c(O)c2ncccc12 | 7.34 µM | > 26.9 µM | 8.39 µM | 7.14 µM | 11.6 µM | 4.98 µM | 13 µM | 19.3 µM |  |  |  |
| COc1ccccc1-c1cc(=O)c2cc3c(cc2[nH]1)OCO3 | > 100 µM | > 100 µM | > 100 µM | 88.8 µM |  | > 100 µM |  | > 100 µM | 22.8 µM |  |  |
| Cc1c(N2CCN(C)CC2)nc2ccc(Cl)cc2c1-c1ccccc1 | 40 µM | 34.5 µM |  |  | 38.6 µM | 28.8 µM | > 100 µM | 34.6 µM |  |  |  |
| C=C(CCC/C(C)=C/C=C/[C@@H](C)CCCc1ccoc1)C[C@@H]1OC(=O)[C@H](C)[C@@H]1O | > 50 µM |  | 21.7 µM | 14.1 µM | 15.5 µM | 14.3 µM | 15.8 µM | 23.7 µM |  | 16.3 µM | 26.2 µM |
| C/C(CC(O)(/C=N/O)c1ccccc1)=N/O (centres undefined) | > 100 µM |  | > 100 µM | > 100 µM | > 100 µM | > 100 µM | > 100 µM | > 100 µM |  | > 100 µM | > 100 µM |
| N#CC(Cc1ccccc1)N(CCC1=CCCCC1)Cc1ccccc1 (centres undefined) | > 100 µM |  | > 100 µM |  | 68 µM | 51.9 µM | > 100 µM | > 100 µM |  | 91.1 µM | > 100 µM |
| CC[C@@]1(C)CCC2c3ccc(O)cc3CC[C@H]2C1C (some centres undefined) | 31.9 µM | 29 µM | 38.1 µM |  | 36.1 µM | 30.7 µM |  | 32.4 µM |  | 30.2 µM | 39.3 µM |
| CSc1nc(NC2OC(COC(C)=O)C(OC(C)=O)C(OC(C)=O)C2OC(C)=O)c2c(n1)OCC2=O (centres undefined) | > 100 µM | > 100 µM | > 100 µM | > 100 µM | > 100 µM | > 100 µM | > 100 µM | > 100 µM |  |  |  |
| O=c1c2cc3c(=O)n4c(cc(-c5ccccc5)c5cc(Cl)ccc54)nc3cc2nc2cc(-c3ccccc3)c3cc(Cl)ccc3n12 | > 100 µM |  | > 100 µM | > 100 µM | > 100 µM | > 100 µM | > 100 µM | > 100 µM |  | > 100 µM | > 100 µM |
| COc1ccc(N2C(=O)C3c4[nH]c5ccc(Br)cc5c4C4CCC(C(C)(C)C)CC4C3C2=O)cc1 (centres undefined) | > 100 µM | > 100 µM | > 100 µM | > 100 µM | > 100 µM | > 100 µM | > 100 µM | > 100 µM |  | > 100 µM |  |
| CC(C)NC(=O)OCc1c(CO)c2c(n1C)-c1ccccc1CC2 | 34 µM | > 58.3 µM | > 77.6 µM | > 64.5 µM | 31.3 µM | 71 µM | > 100 µM | 38.8 µM |  |  |  |
| Cc1ccc(/C(O)=C/C(=O)C(=O)NC23CC4CC(CC(C4)C2)C3)cc1 |  | > 10 µM |  |  |  | > 10 µM | > 10 µM | > 10 µM |  | > 10 µM | > 10 µM |
| COc1ccc(/C(Cl)=C(\C=N/O)c2ccc(OC)c(OC)c2)cc1OC | > 100 µM | > 100 µM | > 100 µM | > 100 µM | > 100 µM | > 100 µM | > 100 µM | > 100 µM |  |  |  |
| O=C(CN1CCOCC1)c1ccc2c(c1)oc(=O)n2CCN1CCOCC1 | > 100 µM | > 100 µM | > 100 µM | > 100 µM |  | > 100 µM | > 100 µM | > 100 µM |  | > 100 µM |  |
| O=c1[nH]nc(-c2ccccc2)n1/N=C/c1cccs1 | > 100 µM |  |  | > 100 µM |  |  | > 100 µM | > 100 µM |  | 79.5 µM | > 100 µM |
| NC(=O)NCCCC(NC(=O)OCCCCCCn1ccc(=O)[nH]c1=O)C(=O)O (centres undefined) | > 100 µM | > 100 µM | > 100 µM | > 100 µM |  |  | > 100 µM | > 100 µM |  | > 100 µM | > 100 µM |
| O=[N+]([O-])C(=C(N1CCOCC1)N1CCOCC1)/C(Cl)=C(\Cl)Br | 30.8 µM | 16.9 µM |  | 60.5 µM | 6.71 µM |  |  | 28.8 µM |  |  | 32.1 µM |
